Experiments:
[1] = Inhibition of IDH2 R172S mutant (unknown origin); set-up: species or system Homo sapiens
[2] = biological target: Isocitrate dehydrogenase [NADP], mitochondrial (Homo sapiens, UniProt P48735, R172K); assay: Inhibition of FLAG-tagged IDH2 R172K mutant (unknown origin) extracted from baculovirus infected Sf9 cells
U-87 MG = assay: Antiproliferative activity against human U87; assay type: functional, cell-based, U-87MG ATCC
TF-1 = assay: Antiproliferative activity against human TF-1 cells; assay type: functional, cell-based
HCT-116 = assay: Antiproliferative activity against human HCT-116 cells; assay type: functional, cell-based
[3] = biological target: Isocitrate dehydrogenase [NADP], mitochondrial (Homo sapiens, UniProt P48735, R140Q); assay: Inhibition of FLAG-tagged IDH2 R140Q mutant (unknown origin) extracted from baculovirus infected Sf9 cells
Chain of Isocitrate dehydrogenase [NADP], mitochondrial (Homo sapiens, UniProt P48735, R140Q) (P48735 40-452 R140Q limits assumed): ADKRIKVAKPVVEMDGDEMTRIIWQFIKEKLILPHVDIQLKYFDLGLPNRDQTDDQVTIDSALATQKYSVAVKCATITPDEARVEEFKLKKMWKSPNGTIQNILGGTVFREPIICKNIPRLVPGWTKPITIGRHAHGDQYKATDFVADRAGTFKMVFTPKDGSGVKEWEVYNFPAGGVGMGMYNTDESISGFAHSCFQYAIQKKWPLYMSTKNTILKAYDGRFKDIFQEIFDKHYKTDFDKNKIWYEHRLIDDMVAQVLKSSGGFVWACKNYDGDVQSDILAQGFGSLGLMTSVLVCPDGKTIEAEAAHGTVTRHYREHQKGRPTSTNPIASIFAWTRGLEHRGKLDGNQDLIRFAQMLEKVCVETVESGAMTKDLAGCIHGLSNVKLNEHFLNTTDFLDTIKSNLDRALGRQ

[4] = Downregulation of HoxA9 expression in human AML3 cells; assay type: functional, cell-based

Chain of Isocitrate dehydrogenase [NADP], mitochondrial (Homo sapiens, UniProt P48735, R172K) (P48735 40-452 R172K limits assumed): as the sequence (P48735 40-452 R140Q limits assumed) above, with Q101R, R133K counted along it

C[C@H](O)c1cccc(NC(=O)c2nn(Cc3ccc(F)cc3)c3c2CN(C(=O)c2ccc[nH]2)C[C@H]3C)c1
IC50 [1]: 1030 nM

CC(C)(O)CNc1nc(Nc2ccnc(C(F)(F)F)c2)nc(-c2cccc(C(F)(F)F)n2)n1 [ENASIDENIB]
IC50 [2]: 200 nM
IC50 (U-87 MG): 10 nM
IC50 (TF-1): 20 nM
IC50 (HCT-116): 530 nM
IC50 [3]: 320 nM

C[C@H]1C[C@@H](n2c(Nc3ccc(OC(F)(F)F)cc3)nc3cc(CCC(=O)O)ccc32)CC(C)(C)C1 [BAY1436032]
IC50 [4]: 60 nM

— ChEMBL document CHEMBL6103547, “Comprehensive exploration of isocitrate dehydrogenase (IDH) mutations: Tumorigenesis, drug discovery, and covalent inhibitor advances” (Eur J Med Chem, 2025)
